Values quoted from earlier work in patent publication EP2792015B1, “HIGH SPECIFIC-ENERGY LI/02-CO2 BATTERY” (Robert Bosch GmbH, priority 2011, dated 2013).
Values after ≈ are worked out from the molar mass of the structure shown. Read-outs that look alike come from different tables or passages of the source.

Settings: 1 atmosphere and 25°C

| SMILES | Solubility (in H2O) [µg/mL] | Solubility (in propylene carbonate) [µg/mL] |
| --- | --- | --- |
| O=C=O [CO2, carbon dioxide] | 1450 (≈ 32.9 mM) | 6115 (≈ 139 mM) |
| O=O [O2, oxygen] | 8.3 (≈ 0.259 mM) | 110 (≈ 3.44 mM) |
